These are literature values, as cited in patent US8637296B2, “Lactobacillus helveticus strains for producing hypotensive peptides” (Nestec S.A., priority 2008, dated 2014).

Molecules are shown by their SMILES.

The target in the series is angiotensin converting enzyme (ACE) (Homo sapiens, UniProt P12821).
angiotensin converting enzyme (ACE), sequence (P12821 30-1306, species assumed): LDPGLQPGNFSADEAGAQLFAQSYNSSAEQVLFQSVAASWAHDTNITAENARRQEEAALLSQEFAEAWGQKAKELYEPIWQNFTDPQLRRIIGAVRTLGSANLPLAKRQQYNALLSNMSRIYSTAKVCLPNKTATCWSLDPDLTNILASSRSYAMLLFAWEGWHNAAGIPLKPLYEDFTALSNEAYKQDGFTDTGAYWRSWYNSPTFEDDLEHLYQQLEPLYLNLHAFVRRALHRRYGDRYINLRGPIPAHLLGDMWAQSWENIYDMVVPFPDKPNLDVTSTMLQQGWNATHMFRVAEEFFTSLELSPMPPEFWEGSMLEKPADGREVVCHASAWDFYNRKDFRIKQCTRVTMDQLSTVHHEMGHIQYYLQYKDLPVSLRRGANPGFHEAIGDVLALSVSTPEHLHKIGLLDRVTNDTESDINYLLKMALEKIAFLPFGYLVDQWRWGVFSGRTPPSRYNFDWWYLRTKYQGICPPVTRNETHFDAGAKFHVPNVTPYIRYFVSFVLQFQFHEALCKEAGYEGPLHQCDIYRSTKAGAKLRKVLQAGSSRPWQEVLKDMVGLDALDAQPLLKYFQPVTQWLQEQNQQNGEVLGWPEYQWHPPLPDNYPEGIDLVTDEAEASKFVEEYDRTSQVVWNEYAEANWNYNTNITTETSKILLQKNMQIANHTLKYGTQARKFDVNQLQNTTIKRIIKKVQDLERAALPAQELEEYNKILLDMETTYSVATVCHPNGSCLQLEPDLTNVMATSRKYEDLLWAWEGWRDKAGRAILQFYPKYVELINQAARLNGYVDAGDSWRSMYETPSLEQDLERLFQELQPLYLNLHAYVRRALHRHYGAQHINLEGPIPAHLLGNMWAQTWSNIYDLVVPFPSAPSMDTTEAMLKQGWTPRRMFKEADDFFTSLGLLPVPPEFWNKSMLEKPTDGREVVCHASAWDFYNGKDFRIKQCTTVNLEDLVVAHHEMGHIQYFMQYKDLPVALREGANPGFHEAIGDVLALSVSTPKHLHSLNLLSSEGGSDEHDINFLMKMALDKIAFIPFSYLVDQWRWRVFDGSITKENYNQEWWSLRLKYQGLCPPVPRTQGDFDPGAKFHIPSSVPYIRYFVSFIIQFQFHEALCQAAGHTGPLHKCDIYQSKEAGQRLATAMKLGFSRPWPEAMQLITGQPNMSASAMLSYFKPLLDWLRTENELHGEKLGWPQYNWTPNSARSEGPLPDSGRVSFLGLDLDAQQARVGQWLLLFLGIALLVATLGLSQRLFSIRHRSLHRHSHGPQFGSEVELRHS

As to `CC[C@H](C)[C@H](N)C(=O)N1CCC[C@H]1C(=O)N1CCC[C@H]1C(=O)O` [IPP, isoleucyl-prolyl-proline], the “inhibition of angiotensin converting enzyme (ACE)” value is listed as “inhibit”.

In the case of `CC(C)[C@H](N)C(=O)N1CCC[C@H]1C(=O)N1CCC[C@H]1C(=O)O` [VPP, valyl-prolyl-proline], the “inhibition of angiotensin converting enzyme (ACE)” value is given as “inhibit”.
